# In US20040110848A1, “Method and kit for treating cancer” (priority 2002, published 2004):
# Experiments:
# 4E-BP1 (Ser65) = assay: Western blot of phospho-4E-BP1 (Ser65) in prostate cancer cells; type: cell-based, human; settings: both prostate cell lines (PC-3, DU145); perillyl alcohol 400 μM 16 hr, genistein 40 μM 4 hr, LY 294002 10 μM 4 hr
# Experimental: (§1) We treated PC-3, DU145, and Caco-2 (colon adenocarcinoma) cells with lovastatin (LVT), perillyl alcohol (PA), the P13 kinase inhibitor, LY294002 (LY), or genistein (Gen). PC-3, DU145, and Caco-2 cells were plated in RPMI plus 10% FBS and cells allowed to grow for 24 hr. Medium was supplemented with lovastatin (1 μM for 16 hr), perillyl alcohol (400 μM for 16 hr), genistein (40 μM for 4 hr), or LY 294002 (10 μM for 4 hr). Cells were lysed in RIPA buffer and protein extracts quantitated. Aliquots (100 μg) were electrophoresed and transferred to PVDF membranes. […] The eIF4E (FIG. 6, top panel) and 4E-BP1 (FIG. 6, middle panel) were detected using antibodies specific for eIF4E and phospho-4E-BP1 (Ser65). Specific proteins were detected by ECL using a Kodak Image Station.
# (§2) Referring now to FIG. 6 which depicts a Western blot analysis of eIF4E, 4E-BP1 (Ser65) and Rab3A from various cells. […] The same blot was reprobed with phospho-4E-BP1 (Ser65). […] Rab3A levels were also compared in the highly metastatic PC-3 cells, DU145 and in Caco-2, which is considered to have low metastatic potential.
# [1] = system: PC-3 prostate cancer cells; assay: Membrane Invasion Culture System (MICS); type: cell-based, human; settings: for percent invaded: PC-3, 24 hr, MATRIGEL coated membrane, Perillyl Alcohol 400 μM, Genistein 20 μM, γ-tocotrienol 20 μM, control 12.5%; for invasive ability of PC-3 cells: PC-3, MICS
# From the text: The Membrane Invasion Culture System (MICS) represents a direct measurement of intracellular reorganization and invasive capability of cancer cell lines. The MICS protocol was used to quantitate the effects of isoprenoid treatment on the invasive potential of PC-3 prostate cancer cells. Polycarbonate membranes (10 μm pores) were coated with a basement membrane matrix (MATRIGEL™, BD Biosciences) and placed inside MICS chambers. Both upper and lower chambers were filled with serum-free RPMI 1640 containing Mito plus™. Cells were seeded onto the upper wells at 1×10^5 cells/well. After 24 hr, cells that had invaded through the membrane were collected and counted. Invasion rates were calculated as the percent cells invading the matrix coated membrane compared to total number of cells seeded (Table 3).
# MMP-9 = assay: Gelatin zymography of conditioned media, MMP-9; type: cell-based, human; settings: for MMP-9 Count: perillyl alcohol 400 μM, 16 hr
# From the text: (§3) Since the effects of isoprenoids with or without genistein on prostate cancer metastasis had not been explored prior to the present invention, the effects of genistein, perillyl alcohol, and γ-tocotrienol were studied on MMP-9 and MMP-2 activity. MMP activity as described in the background has been linked in part to the Ras/ERK pathway and may also be involved in a second unidentified pathway that is ERK-independent. Therefore, we employed gelatin zymography to study effects of isoprenoids on MMP-9 and MMP-2 activation and secretion.
# (§4) Referring now to FIG. 8. which depicts a gelatin zymogram showing the effects of perillyl alcohol (PA), genistein (Gen), or γ-tocotrienol (g-Toco) on MMP activity. The results of FIG. 8 are quantified in Table 2. Cells were grown in 100 mm culture plates to approximately 80% confluency. Prior to experimental treatments, cells were washed extensively in serum-free medium and then incubated for […] in serum-free media with Mito plus® serum supplement (Becton-Dickinson) in the absence or presence of isoprenoids. Conditioned media were then collected from PC-3 and DU145 cells that were incubated in the absence or presence of genistein (20 μM), perillyl alcohol (400 μM), or γ-tocotrienol (20 μM) for 16 hr and clarified by centrifugation. MMP activity in conditioned media was analyzed by mixing aliquots with SDS sample loading buffer without β-mercaptoethanol (non-reducing). Samples were electrophoresed on a 10% polyacrylamide (29:1) separating gel containing 0.1% (w/v) gelatin. Gels were incubated in developing buffer at 37° C. overnight. Enzyme activity was observed after staining with Coomassie Blue as clear bands on a blue background of undigested gelatin. Band density was then normalized to cell number prior to- and post-treatment (See FIG. 8).
# [2] = system: human prostate cancer cells; settings: human prostate cancer cells in culture; cited from earlier work
# MMP-2 = assay: Gelatin zymography of conditioned media, MMP-2; type: cell-based, human; settings: for MMP-2 Count: perillyl alcohol 400 μM, 16 hr
# From the text: as §3, §4
# [3] = system: androgen-responsive prostate tumor cell line LNCaP; settings: cited from earlier work
# DU145 = assay: In vitro collagen gel contraction assay, DU145; type: cell-based, human; settings: Perillyl Alcohol 400 μM, Genistein 20 μM, control 3.0
# Experimental: (§5) An in vitro collagen gel contraction assay was used to evaluate the effects of isoprenoids on biomechanical tumor cell matrix remodeling from various prostate cancer cell lines. Collagen gel suspensions for each tumor cell line were prepared by mixing a 250 μl suspension of 3×10^6 cells/ml with 250 μl of undiluted rat tail collagen type I (BD Biosciences). The resultant collagen gel suspensions were dripped onto 35 mm petri dishes containing 3 ml RPMI 1640 in 10% FBS to prevent adhesion of collagen to the dish. Collagen gel suspensions were allowed to polymerize for one hr. Isoprenoid treatments were added 24 hr after exchanging culture medium and were removed 24-48 hr post treatment.
# PC-3 = assay: In vitro collagen gel contraction assay, PC-3; type: cell-based, human; settings: for Diameter (cm) of collagen gel: PC-3, Perillyl Alcohol 400 μM, Genistein 20 μM, control 2.0
# Experimental: as §5
# Table 4 summaries the effects on collagen gel ball diameters for both PC3 and DU145 as a result from being exposed to various isoprenoids during the in vitro collagen gel contraction assay.
# HMG-CoA reductase [4] = assay: HMG-CoA reductase degradation (half-life) in lovastatin-treated SV28 cells; type: cell-based
# Experimental: (§6) As discussed above, the end products of plant mevalonate metabolism, i.e., isoprenoids, suppress mammalian HMG-CoA reductase. To characterize the level at which plant-derived isoprenoids regulate reductase activity, lovastatin treated Syrian Hamster C100 cells were incubated with mevalonate or an isoprenoid (limonene, perillyl alcohol, or geraniol). These monoterpenes were selected because they are representative of isoprenoids found in a wide variety of plants, fruits and grains. C100 cells in which endogenous mevalonate biosynthesis is blocked with lovastatin have been a useful system to evaluate the effects of oxysterols and mevalonate-derived isoprenoids, either alone or in combination, on HMG-CoA reductase levels and rates of synthesis or degradation. […] The effects of the three isoprenoids on reductase degradation were also determined by measuring the half-life of HMG-CoA reductase.
# HMG-CoA reductase [5] = assay: Rate of HMG-CoA reductase synthesis (35S-labeled immunoprecipitable reductase) in lovastatin-treated C100 cells; type: cell-based, Syrian Hamster; settings: for reductase synthesis lowered by: lovastatin treated C100 cells
# Experimental: as §6
# HMG-CoA reductase mRNA = HMG-CoA reductase mRNA levels in lovastatin-treated C100 cells; type: cell-based, Syrian Hamster; settings: for reductase mRNA level lowered by / impact on HMG-CoA reductase mRNA levels: lovastatin treated C100 cells
# Experimental: as §6
# Rab3A = assay: Western blot of Rab3A; type: cell-based, human; settings: DU145 cells; perillyl alcohol 400 μM 16 hr
# Experimental: as §1, §2
# [6] = DU145 conditioned media, genistein 20 μM (control 30.71), γ-tocotrienol 20 μM (control 23.5)
# [7] = PC-3 conditioned media, genistein 20 μM (control 46.95), γ-tocotrienol 20 μM (control 18.14)
# [8] = DU145 conditioned media, genistein 20 μM (control 15.05), γ-tocotrienol 20 μM (control 5.5)
# [9] = PC-3 conditioned media, genistein 20 μM (control 11.85), γ-tocotrienol 20 μM (control 18.14)
SMILES,percent invaded [1] [%],invasive ability of PC-3 cells [1],MMP-9 activity (MMP-9; DU145 cells),MMP-9 Count (MMP-9; [6]),MMP-9 activity (MMP-9; PC-3 cells),MMP-9 Count (MMP-9; [7]),MMP-2 Count (MMP-2; [8]),MMP-2 Count (MMP-2; [9]),reductase synthesis lowered by (HMG-CoA reductase [5]) [%],further results
"O=c1c(-c2ccc(O)cc2)coc2cc(O)cc(O)c12 [Genistein, genistein]",0,"inhibited the invasive ability of PC-3 cells, with genistein exhibiting the greatest effect",exhibited no similar effect,47.64,nearly ninety percent,5.25,23.54,4.25,–,4E-BP1 Ser65 phosphorylation (Western blot) (4E-BP1 (Ser65)): did not appear to affect Ser65 phosphorylation of the upper band but reduced phosphorylation of the lower of the two bands; concentration inhibiting growth [2]: above 50 μmol; concentration shown to induce apoptosis [3]: above 20 μM; Diameter (cm) of collagen gel (DU145): 3.2 cm; Diameter (cm) of collagen gel (PC-3): 3.5 cm
"CC(C)=CCC/C(C)=C/CO [Geraniol, geraniol]",–,–,–,–,–,–,–,–,98,effect on half-life of reductase (HMG-CoA reductase [4]): Neither limonene nor geraniol affected the half-life; reductase mRNA level lowered by (HMG-CoA reductase mRNA): 64%
"CC[C@H](C)C(=O)O[C@H]1C[C@@H](C)C=C2C=C[C@H](C)[C@H](CC[C@@H]3C[C@@H](O)CC(=O)O3)[C@H]21 [Lovastatin, lovastatin, reference compound]",–,–,–,–,–,–,–,–,–,"Rate of Synthesis (reductase) (HMG-CoA reductase [5]; percentage (mean ± S.D.) of lovastatin-treated C100 cells set at 100%, 1 hr 35S labeling, mevalonate 10 mM, limonene 5 mM, perillyl alcohol 0.7 mM, geraniol 0.4 mM): 100 ± 15%; mRNA Levels (reductase) (HMG-CoA reductase mRNA; percentage of lovastatin-treated cells set at 100%, corrected to RP S17 mRNA, mevalonate 10 mM, limonene 5 mM, perillyl alcohol 0.7 mM, geraniol 0.4 mM): 100 ± 5%"
"CC(O)(CCO)CC(=O)O (stereo not shown) [Mevalonate, mevalonate, reference compound]",–,–,–,–,–,–,–,–,65,HMG-CoA reductase half-life decreased by (HMG-CoA reductase [4]): approximately 60%; reductase mRNA level lowered by (HMG-CoA reductase mRNA): 65%
"C=C(C)[C@@H]1CC=C(CO)CC1 [Perillyl Alcohol, perillyl alcohol]",5,inhibited the invasive ability,nearly extinguished all MMP-9 activity,0.09,exhibited no similar effect,72.65,10.63,6.73,89,"4E-BP1 Ser65 phosphorylation (Western blot) (4E-BP1 (Ser65)): reduced Ser65 phosphorylation; impact on HMG-CoA reductase mRNA levels (HMG-CoA reductase mRNA): neither limonene nor perillyl alcohol had a significant impact; Diameter (cm) of collagen gel (DU145): 3.75 cm; extracellular matrix remodeling of gel ball (PC-3; PC3 cells, FIG. 9): retards matrix remodeling; Diameter (cm) of collagen gel (PC-3): 3.2 cm; Rab3A protein level (Western blot) (Rab3A): further reduce the levels of Rab3A protein"
C=C(C)[C@H]1CC=C(C)CC1 [limonene],–,–,–,–,–,–,–,–,70,effect on half-life of reductase (HMG-CoA reductase [4]): Neither limonene nor geraniol affected the half-life; impact on HMG-CoA reductase mRNA levels (HMG-CoA reductase mRNA): neither limonene nor perillyl alcohol had a significant impact
CC(C)=CCC/C(C)=C/CC/C(C)=C/CC[C@]1(C)CCc2cc(O)c(C)c(C)c2O1 [γ-tocotrienol],7,inhibited the invasive ability,modest monotonic decreases,16.5,modest monotonic decreases,27.4,−2.2,15.3,–,MMP-2 activity (MMP-2; DU145 cells): modest monotonic decreases; MMP-2 activity (MMP-2; PC-3 cells): modest monotonic decreases
